Laboratory results reported in patent publication US12492173B2, “Herbicidal substituted N-tetrazolyl aryl carboxamides” (Bayer Aktiengesellschaft, priority 2019, dated 2025).

Experiments:
Type in all cases: in vivo
Setaria viridis = test: Pre-emergence herbicidal action, SETVI; design: key to Herbicidal action against SETVI: % activity: 100 = plants have died, 0 = like control plants; details: for herbicidal activity SETVI / herbicidal action SETVI: dosage 320 g/ha; for herbicidal activity SETVI: scored visually after 3 weeks vs untreated controls (100% = plants have died); for Herbicidal action against SETVI: comparative experiment
Summary of the method: (§1)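 Visual scoring after 3 weeks in the greenhouse, relative to untreated pots, gave percent activity, where 100% means dead plants and 0% equals controls. Treatment was a pre-emergence soil-surface spray of WP or EC formulations in water (600 to 800 l/ha, 0.2% wetting agent) over seeds covered in sandy loam.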

Matricaria inodora = test: Post-emergence herbicidal action, MATIN; design: key: % herbicidal action vs untreated; 100 = plants died, 0 = like control
Summary of the method: (§2)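 Values are visual estimates of herbicidal action, from 0% (as untreated) to 100% (dead), made about 3 weeks after plants at one-leaf stage in sandy loam were sprayed with the formulated compound.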

Viola tricolor = test: Pre-emergence herbicidal action, VIOTR; design: key to Herbicidal action against VIOTR: % activity: 100 = plants have died, 0 = like control plants; details: for herbicidal activity VIOTR / herbicidal action VIOTR: dosage 320 g/ha; for herbicidal activity VIOTR: scored visually after 3 weeks vs untreated controls (100% = plants have died)
Summary of the method: as §1

Abutilon theophrasti = test: Post-emergence herbicidal action, ABUTH; design: key: % herbicidal action vs untreated; 100 = plants died, 0 = like control
Summary of the method: as §2

Veronica persica [1] = test: Post-emergence herbicidal action, VERPE; design: key: % herbicidal action vs untreated; 100 = plants died, 0 = like control; details: for Herbicidal action against VERPE: comparative experiment, 20 g of a.i./ha
Summary of the method: as §2

Veronica persica [2] = test: Pre-emergence herbicidal action, VERPE; design: key to Herbicidal action against VERPE: % activity: 100 = plants have died, 0 = like control plants; details: for herbicidal activity VERPE / herbicidal action VERPE: dosage 320 g/ha; for herbicidal activity VERPE: scored visually after 3 weeks vs untreated controls (100% = plants have died); for Herbicidal action against VERPE: comparative experiment
Summary of the method: as §1

[3] = comparative experiment, post-emergence, 20 g of a.i./ha

| Structure (SMILES) | herbicidal activity SETVI (Setaria viridis) [%] | herbicidal action MATIN (Matricaria inodora; Dosage 80 g/ha) | herbicidal activity VIOTR (Viola tricolor) [%] | herbicidal action ABUTH (Abutilon theophrasti; Dosage 80 g/ha) | herbicidal action VERPE (Veronica persica [1]; Dosage 80 g/ha) | herbicidal activity VERPE (Veronica persica [2]) [%] | herbicidal action MATIN (Matricaria inodora; post-emergence, dosage 80 g/ha) [%] | herbicidal action ABUTH (Abutilon theophrasti; post-emergence, dosage 80 g/ha) [%] | herbicidal action VERPE (Veronica persica [1]; post-emergence, dosage 80 g/ha) [%] | further results |
| --- | --- | --- | --- | --- | --- | --- | --- | --- | --- | --- |
| Cn1nnnc1NC(=O)c1ccc(C(F)(F)F)c(CSCC(F)(F)F)c1Cl [Example 1-311] | 100 | 100 | 100 | 100 | 100 | 100 |  |  |  |  |
| Cn1nnnc1NC(=O)c1ccc(C(F)(F)F)c(CSCC2CC2)c1Cl [Example 1-314] | 100 |  | 100 |  |  | 100 | 100 | 100 | 100 |  |
| Cn1nnnc1NC(=O)c1ccc(C(F)(F)F)c(CS(=O)(=O)CC2CC2)c1Cl [Example 1-316] | 100 | 90 | 100 | 100 | 100 | 100 |  |  |  |  |
| Cn1nnnc1NC(=O)c1ccc(C(F)F)c(CS(C)(=O)=O)c1Cl [Example 1-322] | 100 |  | 100 |  |  | 100 | 80 | 100 | 100 |  |
| CCSCc1c(C(F)F)ccc(C(=O)Nc2nnnn2C)c1Cl [Example 1-323] | 100 |  | 100 |  |  | 100 | 100 | 100 | 100 |  |
| CCS(=O)(=O)Cc1c(C(F)F)ccc(C(=O)Nc2nnnn2C)c1Cl [Example 1-325] | 100 | 80 | 100 | 100 | 100 | 100 |  |  |  |  |
| CSCc1c(I)ccc(C(=O)Nc2nnnn2C)c1Cl [Example 1-362] | 100 |  | 100 |  |  | 100 | 100 | 100 | 100 | Herbicidal action against SETVI (Setaria viridis; 20 g of a.i./ha): 90; Herbicidal action against VERPE (Veronica persica [2]; 20 g of a.i./ha): 60 |
| Cn1nnnc1NC(=O)c1ccc(I)c(CS(C)(=O)=O)c1Cl [Example 1-364] | 100 | 100 | 100 | 100 | 100 | 100 |  |  |  | Herbicidal action against SETVI (Setaria viridis; 20 g of a.i./ha): 100; Herbicidal action against VERPE (Veronica persica [2]; 20 g of a.i./ha): 100 |
| CCSCc1c(C(F)(F)F)ccc(C(=O)Nc2nnnn2C)c1Br [Example 1-383] | 100 |  | 100 |  |  | 100 | 90 | 100 | 100 | Herbicidal action against SETVI (Setaria viridis; 80 g of a.i./ha): 100; Herbicidal action against VIOTR (Viola tricolor; comparative experiment, 80 g of a.i./ha): 100; Herbicidal action against ABUTH (Abutilon theophrasti; [3]): 90; Herbicidal action against VERPE (Veronica persica [1]; post-emergence): 100; Herbicidal action against VERPE (Veronica persica [2]; 80 g of a.i./ha): 100 |
| CCS(=O)(=O)Cc1c(C(F)(F)F)ccc(C(=O)Nc2nnnn2C)c1Br [Example 1-385] | 100 |  | 100 |  |  | 100 | 90 | 100 | 100 | Herbicidal action against SETVI (Setaria viridis; 80 g of a.i./ha): 90; Herbicidal action against MATIN (Matricaria inodora; [3]): 90; Herbicidal action against VERPE (Veronica persica [1]; post-emergence): 100; Herbicidal action against VERPE (Veronica persica [2]; 80 g of a.i./ha): 100 |
| Cn1nnnc1NC(=O)c1ccc(C(F)(F)F)c(CS(C)(=O)=O)c1C(F)(F)C(F)(F)F [Example 1-552] | 100 | 90 | 100 | 90 | 100 | 100 |  |  |  |  |
| CSCc1c(Cl)ccc(C(=O)Nc2nnnn2C)c1Cl [Example 1-559] |  |  |  |  |  |  | 100 | 90 | 100 | herbicidal action SETVI (Setaria viridis): 80%; herbicidal action VIOTR (Viola tricolor): 100%; herbicidal action VERPE (Veronica persica [2]): 90% |
| CCSCc1c(C(F)(F)F)ccc(C(=O)Nc2nnnn2CC)c1C [Example 2-86] |  |  |  |  |  |  | 100 | 80 | 90 | herbicidal action SETVI (Setaria viridis): 100%; herbicidal action VIOTR (Viola tricolor): 100%; herbicidal action VERPE (Veronica persica [2]): 100% |
| CCn1nnnc1NC(=O)c1ccc(C(F)(F)F)c(CS(=O)(=O)CC)c1C [Example 2-88] |  | 90 |  | 80 | 100 |  |  |  |  | herbicidal action SETVI (Setaria viridis): 100%; herbicidal action VIOTR (Viola tricolor): 100%; herbicidal action VERPE (Veronica persica [2]): 100% |
| CCn1nnnc1NC(=O)c1ccc(C(F)F)c(C[S+](C)[O-])c1C (stereo not shown) [Example 2-108] |  | 100 |  | 100 | 100 |  |  |  |  | herbicidal action SETVI (Setaria viridis): 100%; herbicidal action VIOTR (Viola tricolor): 100%; herbicidal action VERPE (Veronica persica [2]): 100% |
| CCn1nnnc1NC(=O)c1ccc(C(F)(F)F)c(C[S+](C)[O-])c1SC (stereo not shown) [Example 2-162] | 100 | 100 | 100 | 100 | 90 | 90 |  |  |  |  |
| CCn1nnnc1NC(=O)c1ccc(C(F)F)c(CSC)c1SC [Example 2-170] | 100 | 100 | 100 | 100 | 90 | 100 |  |  |  |  |
| CCn1nnnc1NC(=O)c1ccc(C(F)F)c(C[S+](C)[O-])c1SC (stereo not shown) [Example 2-171] | 100 | 100 | 100 | 100 | 100 | 100 |  |  |  |  |
| CCn1nnnc1NC(=O)c1ccc(C(F)(F)F)c(CSC)c1Cl [Example 2-296] | 100 |  | 100 |  |  | 100 | 90 | 100 | 100 |  |
| CCn1nnnc1NC(=O)c1ccc(C(F)(F)F)c(C[S+](C)[O-])c1Cl (stereo not shown) [Example 2-297] | 100 |  | 100 |  |  | 100 | 100 | 80 | 100 |  |
| CCn1nnnc1NC(=O)c1ccc(C(F)(F)F)c(CS(C)(=O)=O)c1Cl [Example 2-298] | 100 | 100 | 100 | 80 | 100 | 100 |  |  |  |  |
| CCSCc1c(C(F)(F)F)ccc(C(=O)Nc2nnnn2CC)c1Cl [Example 2-299] | 100 |  | 100 |  |  | 100 | 100 | 100 | 100 |  |
| CCn1nnnc1NC(=O)c1ccc(C(F)(F)F)c(C[S+]([O-])CC)c1Cl (stereo not shown) [Example 2-300] | 100 |  | 100 |  |  | 100 | 90 | 90 | 100 |  |
| CCn1nnnc1NC(=O)c1ccc(C(F)(F)F)c(CS(=O)(=O)CC)c1Cl [Example 2-301] |  | 90 |  | 80 | 100 |  |  |  |  | herbicidal action SETVI (Setaria viridis): 100%; herbicidal action VIOTR (Viola tricolor): 100%; herbicidal action VERPE (Veronica persica [2]): 100% |
| CCn1nnnc1NC(=O)c1ccc(C(F)(F)F)c(CSCCOC)c1Cl [Example 2-305] | 100 |  | 100 |  |  | 100 | 100 | 100 | 100 |  |
| CCn1nnnc1NC(=O)c1ccc(C(F)(F)F)c(CSCC(F)(F)F)c1Cl [Example 2-311] | 100 | 100 | 100 | 90 | 100 | 90 |  |  |  |  |
| CCn1nnnc1NC(=O)c1ccc(C(F)(F)F)c(C[S+]([O-])CC2CC2)c1Cl (stereo not shown) [Example 2-315] | 100 | 90 | 100 | 100 | 100 | 100 |  |  |  |  |
| CCn1nnnc1NC(=O)c1ccc(C(F)F)c(CS(C)(=O)=O)c1Cl [Example 2-322] | 100 |  | 100 |  |  | 100 | 90 | 100 | 90 |  |
